Measured values from patent US5567624A, “Carbazine dyes and derivatives for pH measurement” (Utah Medical Products, Inc., priority 1995, dated 1996).

How the values were obtained:
Format in all cases: physicochemical
[1] = Absorbance and fluorescence emission spectra of acid and base forms of the dyes; details: Table, footnote c
Procedure: Certain properties of the carbazine dyes of Examples 1-7 were determined. Spectral data were obtained either with a Hewlett Packard Model 8452A Diode Array Spectrophotometer or a Perkin Elmer Model LS 50B Luminescence Spectrometer. All of the dyes are similar in their absorbance and emission spectra, with only slight differences in peak locations, ratios of absorbance of acid to absorbance of base, and pKa s. The unmodified dyes show large separation between absorbance peaks for acid and base forms. Typically, the acid form has a peak absorbance at about 480 nm, and the base form has a peak absorbance at about 660 nm. Fluorescence emission of the base form has a well-defined single peak at approximately 690 nm.

[2] = pKa of the dyes in aqueous solution, derived from the absorbance spectra
From the text: The pKa values, i.e. the approximate pH values of an aqueous solution of the dye where the acid and base forms of the dye are present in equal concentrations, were derived from the absorbance spectra and are listed in the Table below. As mentioned above, indicator dyes are generally most sensitive to pH changes near their pKa s.

[3] = Fluorescence rating / quantum yield in aqueous solution; details: for Fluorescence: relative scale of 1 to 10 where 10 is best, excitation at maximum absorbance wavelength, constant concentration and pH
From the text: The fluorescence ratings shown in the Table are based on the maximum fluorescence obtainable from an aqueous carbazine dye solution with excitation at the maximum absorbance wavelength for the particular dye, but with concentrations and pH constant between all dyes. […] Quantum yields of the acid forms of the dyes appears as high as the base forms. The carbazine dye of Example 4, sold commercially as "CARBAZINE 720" (Exciton, Inc., Dayton, Ohio), has a quantum yield of approximately 50% in aqueous solution containing base.

Compound	Absorbance ratio of acid/base [1]	pKa [2]	Fluorescence [3]	quantum yield ([3]; aqueous solution containing base)
CC1=CC(=O)C=C(C)C12C1=CC(=O)C=CC1=Nc1ccc(O)cc12 [Example 2]	0.391	6.5	7	–
O=C1C=CC2(C=C1)C1=CC(=O)C=CC1=Nc1ccc(O)cc12 [Example 1, 7-hydroxyspiro[acridine-9,1'-cyclohexa-2',5'-diene]-2(9H),4'-dione]	0.426	6.5	2	–
CC1=CC(=O)C(C)=C(C)C12C1=CC(=O)C=CC1=Nc1ccc(O)cc12 (stereo not shown) [Example 3]	0.380	6.5	10	–
CC1=C(C)C2(C3=CC(=O)C=CC3=Nc3ccc(O)cc32)C(C)=C(C)C1=O [Example 4, 7-hydroxy-2',3',5',6'-tetramethylspiro[acridine-9,1'-cyclohexa-2', 5'-diene]-2(9H), 4'-dione]	0.388	6.5	10	approximately 50%
CC(C)(C)C1=CC2(C=CC1=O)C1=CC(=O)C=CC1=Nc1ccc(O)cc12 (stereo not shown) [Example 7]	0.324	7.2	6	–
O=C1C=CC2=Nc3ccc(O)cc3C3(C=CC(=O)C4=C3CCCC4)C2=C1 (stereo not shown) [Example 5]	0.387	6.7	8	–
CC1=CC(=O)C=C(C(C)C)C12C1=CC(=O)C=CC1=Nc1ccc(O)cc12 (stereo not shown) [Example 6]	0.377	6.4	7	–
